Measurements reported in patent US20100210649A1, “PYRIDAZINONES AND FURAN-CONTAINING COMPOUNDS” (Sloan-Kettering Institute for Cancer Research, priority 2006, published 2010).
Values joined by “and” are separate entries in the source; they are usually repeats but may differ in a detail not shown here. Equal entries are not always repeated. Where two headings read alike, the source gives them in different places.

Experiments:
H1650 = assay: Non Small Cell Lung Cancer proliferation assay (Alamar Blue reduction), H1650; assay type: cell-based, human; conditions: for inhibition at 10 µM: NCI-H1650, primary screening; for inhibition at 10 µM / CONFIRMATION [%] 1650: 10 μM compound in 1% DMSO (v/v); for CONFIRMATION [%] 1650: percentage inhibition
Summary of the method: (§1)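 Compounds are tested at 1% DMSO final concentration against adherent NSCLC cells for 48 h at 37° C, with cytotoxicity measured by Alamar Blue reduction after a further 48 h incubation.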

H2030 = assay: Non Small Cell Lung Cancer proliferation assay (Alamar Blue reduction), H2030; assay type: cell-based, human; conditions: for inhibition at 10 µM: NCI-H2030, primary screening; for inhibition at 10 µM / CONFIRMATION [%] 2030: 10 μM compound in 1% DMSO (v/v); for CONFIRMATION [%] 2030: percentage inhibition
Summary of the method: as §1

H3255 = assay: Non Small Cell Lung Cancer proliferation assay (Alamar Blue reduction), H3255; assay type: cell-based, human; conditions: for inhibition at 10 µM: NCI-H3255, primary screening; for inhibition at 10 µM / CONFIRMATION [%] 3255: 10 μM compound in 1% DMSO (v/v); for CONFIRMATION [%] 3255: percentage inhibition
Summary of the method: as §1

H1734 = assay: Non Small Cell Lung Cancer proliferation assay (Alamar Blue reduction), H1734; assay type: cell-based, human
Procedure: These cells have a doubling time of 1-2 days. All cell types are adherent and grow in colonies. The cells should be kept at a density between 50,000 cells/mL -500,000 cells/mL to provide for optimum growth and adequate nutrition. The cell line should be maintained at 37° C. in a humidified atmosphere with 5% CO2 in a sterile cell culture incubator.
Non Small Cell Lung Cancer Proliferation Assay.
High Controls for this assay are made by treating Non Small Cell Lung Cancer cells with 5 ul of 10% DMSO. [Final concentration in this assay is 1% DMSO].
Important Note: All compounds for testing in this assay should be done at the final concentration of 1% DMSO.
After addition, the cells are placed in cell culture incubator at 37° C. for 48 hours for complete treatment.
After drug treatment, cytotoxicity is measured by Alamar Blue reduction.
The cells are incubated for 48 hours at 37° C. to complete the Alamar Blue reduction.
The final step in the assay is to measure the amount of Alamar Blue reduction. […] The Alamar Blue fluorescence is measured at an excitation of 530 nm and emission of 590 nm.
For the NSCLC project, the cell based assay was screened against a small molecule library of approximately 200,000 compounds. The compound library is stored in our automated robotic freezer (Biophile) at −20° C. in 100% DMSO. Compound freeze and thaw cycles are kept to a minimum. […] This assay was performed on a fully automated linear track robotic platform (CRS F3 Robot System, Thermo Electron Corp., Ontario, Canada) utilizing several integrated peripherals for plate handling, liquid dispensing, and readout detection. […] The microplates are then placed at 37° C. for 48 hours to complete treatment of cells with compounds. Next, 5 ul of alamar blue was added using a liquid dispenser (Flexprop Precision Dispenser, Perkin Elmer, Mass., USA) and incubated for 48 hours at 37° C. The alamar blue prompt fluorescence was measured on Victor V (Victor^3 V, Perkin Elmer, Mass., USA) and output data files were loaded into ORIS (Oncology Research Informatics System, MSKCC, NY, USA), a screening data acquisition and analysis platform.
(§2) The dose response studies were done with the following standard procedure. First, the cells were counted and dispensed at 250 cells/well into 384-well microplates with compound. The cells were incubated for 48 hours at 37 C to complete treatment, and then alamar blue was added for an additional 48 hours. Finally, alamar blue reduction was measured and the data was loaded into ORIS, our data screening acquisition platform.

H23 = assay: Dose response study (Alamar Blue), H23; assay type: cell-based; conditions: Homo sapiens, read-out: IC50 H23
Procedure: (§3) Dose response studies against 34 compounds from the pyridazinone and phenylfuran-carboxamide class were conducted. […] In addition, Tarceva was included in these dose response studies.
as §2

H460 = assay: Dose response study (Alamar Blue), H460; assay type: cell-based; conditions: Homo sapiens, read-out: IC50 H460
Procedure: as §3, §2

H2122 = assay: Dose response study (Alamar Blue), H2122; assay type: cell-based; conditions: Homo sapiens, read-out: IC50 H2122
Procedure: as §3, §2

[1] = Homo sapiens, NCI-H1650, 48 h, H1650, 12 point doubling dilution 10 uM to 5 nM, 48 h treatment, alamar blue additional 48 h, read-out: IC50 H1650
[2] = Homo sapiens, NCI-H1650, phenylfuran-2-carboxamide SAR summary, read-out: IC50(uM) 1650
[3] = Homo sapiens, H1650, read-out: PRIMARY HTS [%] H1650 (percentage inhibition)
[4] = Homo sapiens, NCI-H2030, 48 h, H2030, 12 point doubling dilution 10 uM to 5 nM, 48 h treatment, alamar blue additional 48 h, read-out: IC50 H2030
[5] = Homo sapiens, NCI-H2030, phenylfuran-2-carboxamide SAR summary, read-out: IC50(uM) 2030
[6] = Homo sapiens, H2030, read-out: PRIMARY HTS [%] H2030 (percentage inhibition)
[7] = Homo sapiens, NCI-H3255, 48 h, H3255, 12 point doubling dilution 10 uM to 5 nM, 48 h treatment, alamar blue additional 48 h, read-out: IC50 H3255
[8] = Homo sapiens, NCI-H3255, phenylfuran-2-carboxamide SAR summary, read-out: IC50(uM) 3255
[9] = Homo sapiens, H3255, read-out: PRIMARY HTS [%] H3255 (percentage inhibition)
[10] = Homo sapiens, NCI-H1734, H1734, 12 point doubling dilution 10 uM to 5 nM, 48 h treatment, alamar blue additional 48 h, read-out: IC50 H1734
[11] = NCI-H23, H23, 12 point doubling dilution 10 uM to 5 nM, 48 h treatment, alamar blue additional 48 h
[12] = NCI-H460, H460, 12 point doubling dilution 10 uM to 5 nM, 48 h treatment, alamar blue additional 48 h
[13] = NCI-H2122, H2122, 12 point doubling dilution 10 uM to 5 nM, 48 h treatment, alamar blue additional 48 h
[14] = Homo sapiens, NCI-H1734, 48 h, H1734, 12 point doubling dilution 10 uM to 5 nM, 48 h treatment, alamar blue additional 48 h, read-out: IC50 H1734
[15] = Homo sapiens, read-out: percentage inhibition H1650
[16] = Homo sapiens, read-out: percentage inhibition H2030
[17] = Homo sapiens, read-out: percentage inhibition H3255
[18] = Homo sapiens, NCI-H1734, dose response 10 M to 5 nM, IC50, read-out: Dose Response (uM) H1734
[19] = Homo sapiens, NCI-H1650, dose response 10 M to 5 nM, IC50, read-out: Dose Response (uM) H1650
[20] = Homo sapiens, NCI-H2030, dose response 10 M to 5 nM, IC50, read-out: Dose Response (uM) H2030
[21] = Homo sapiens, NCI-H3255, dose response 10 M to 5 nM, IC50, read-out: Dose Response (uM) H3255
[22] = Homo sapiens, NCI-H1734, read-out: Dose Response (uM) H1734

Structure (SMILES) | IC50 (H1650; [1]) | IC50 (H1650; [2]) | inhibition at 10 µM (H1650; [3]) | CONFIRMATION [%] 1650 (H1650) | IC50 (H2030; [4]) | IC50 (H2030; [5]) | inhibition at 10 µM (H2030; [6]) | CONFIRMATION [%] 2030 (H2030) | IC50 (H3255; [7]) | IC50 (H3255; [8]) | inhibition at 10 µM (H3255; [9]) | CONFIRMATION [%] 3255 (H3255) | IC50 (H1734; [10]) | IC50 (H23; [11]) | IC50 (H460; [12]) | IC50 (H2122; [13]) | IC50 (H1734; [14]) | IC50 (H23; NCI-H23, 48 h) | IC50 (H460; NCI-H460, 48 h) | IC50 (H2122; NCI-H2122, 48 h) | other results
Cc1cccc(NC(=O)c2ccc([N+](=O)[O-])o2)c1 [compound 71762] | 0.63 µM | 0.43 µM | 104% | 135% and 106% | 0.99 µM | 1.43 µM | 101% | 103% | 2.41 µM | 0.95 µM | 100% | 122% and 97% | 4.88 µM | 0.83 µM | 1.85 µM | 4.83 µM | – | – | – | – | IC50 (H1650; phenylfuran-2-carboxamide SAR summary, read-out: IC50(uM) 1650): 0.41 µM; IC50 (H2030; phenylfuran-2-carboxamide SAR summary, read-out: IC50(uM) 2030): 1.46 µM; IC50 (H3255; phenylfuran-2-carboxamide SAR summary, read-out: IC50(uM) 3255): 1.01 µM
O=C(Nc1ccc(F)c(Cl)c1)c1ccc([N+](=O)[O-])o1 [compound 87200] | 7.49 µM | 0.29 µM | 103% | 112% | 8.51 µM | 1.01 µM | 23% | 107% | > 10 µM | 0.69 µM | 6% | 103% | > 10 µM | 4.55 µM | > 10 µM | > 10 µM | – | – | – | – | –
Cc1ccc(NC(=O)c2ccc([N+](=O)[O-])o2)cc1 [compound 98697] | 0.6 µM | 0.44 µM | 103% | 136% | 1.18 µM | 1.06 µM | 62% | 101% | 2.72 µM | 0.91 µM | 83% | 130% | – | – | – | – | 4.42 µM | 0.91 µM | 2.2 µM | 5.2 µM | –
O=C(Nc1ccc(Cl)cc1)c1ccc([N+](=O)[O-])o1 [compound 98698, 5-nitro-furan-2-carboxylic acid (4-chloro-phenyl)-amide] | 0.47 µM | 0.38 µM | 101% | 133% | 0.91 µM | 1.12 µM | 17% | 98% | 1.77 µM | 0.95 µM | 20% | 118% | – | – | – | – | 3.47 µM | 0.6 µM | 1.62 µM | 3.09 µM | –
Cc1cccc(-n2ncc(Cl)c(Cl)c2=O)c1 [compound 104122, 4,5-dichloro-2-m-tolyl-2H-pyridazin-3-one] | 1.41 µM | – | – | – | 0.29 µM | – | – | – | 0.87 µM | – | – | – | – | – | – | – | 2.14 µM | 0.21 µM | 1.56 µM | 1.15 µM | inhibition at 10 µM (H1650; [15]): 48%; inhibition at 10 µM (H2030; [16]): 101%; inhibition at 10 µM (H3255; [17]): 98%; IC50 (H3255; dose response 10 M to 5 nM, IC50, read-out: Dose Response (uM) H3255): 0.38 µM; IC50 (H1734; [18]): 2.17 µM; IC50 (H1734; dose response 10 M to 5 nM, IC50, read-out: Dose Response (uM) H1734): 1.17 µM and 2.21 µM and 1.73 µM
O=c1c(Cl)c(Cl)cnn1-c1cccc(C(F)(F)F)c1 [compound 176729] | 0.8 µM | – | – | – | 0.32 µM | – | – | – | 0.66 µM | – | – | – | 1.22 µM | 0.23 µM | 1.26 µM | 1.5 µM | – | – | – | – | IC50 (H1650; [19]): 1.44 µM; inhibition at 10 µM (H1650; [15]): 100%; IC50 (H2030; [20]): 0.34 µM; inhibition at 10 µM (H2030; [16]): -3%; IC50 (H3255; [21]): 0.73 µM; inhibition at 10 µM (H3255; [17]): 115%; IC50 (H1734; [22]): 0.61 µM
O=c1c(Cl)c(Cl)cnn1-c1ccccc1 [compound 257014] | 1.64 µM | – | – | – | 0.41 µM | – | – | – | 1.5 µM | – | – | – | – | – | – | – | 2.28 µM | 0.26 µM | 2.01 µM | 1.16 µM | IC50 (H1650; [19]): 3.18 µM; IC50 (H2030; [20]): 0.55 µM; IC50 (H3255; [21]): 1.36 µM; IC50 (H1734; [18]): 4.11 µM
O=c1c(Br)c(Br)cnn1-c1ccccc1 [compound 257015] | 0.92 µM | – | – | – | 0.31 µM | – | – | – | 0.76 µM | – | – | – | 1.62 µM | 0.23 µM | 1.3 µM | 1.26 µM | – | – | – | – | IC50 (H1650; [19]): 1.14 µM; IC50 (H2030; [20]): 0.39 µM; IC50 (H3255; [21]): 0.62 µM; IC50 (H1734; [22]): 0.87 µM
